Results reported in ChEMBL document CHEMBL3603763, “Phosphate-modified analogues of m(7)GTP and m(7)Gppppm(7)G-Synthesis and biochemical properties” (Bioorg Med Chem, 2015).

Experiments:
[1] = target: Eukaryotic translation initiation factor 4E (Homo sapiens) (UniProt P06730)
Description: Binding affinity to eIF4E (unknown origin) by fluorescence quenching assay

[2] = target: Eukaryotic translation initiation factor 4E (Oryctolagus cuniculus) (UniProt P29338); assay: Inhibition of eIF4E-mediated translation in flexi rabbit reticulocyte lysate using luciferase mRNA by luminescence based luciferase assay relative to m7GpppG
Serum [3] = assay: Stability of the compound in 5% fetal bovine serum at 50 uM up to 240 mins by RP-HPLC analysis; type: ADME, cell-free, Bos taurus; conditions: cattle, 4 h
Serum [4] = assay: Stability of the compound in 10% fetal bovine serum at 50 uM up to 240 mins by RP-HPLC analysis; type: ADME, cell-free, Bos taurus; conditions: cattle, 4 h
m7GpppX diphosphatase = target: T1, m7GpppX diphosphatase (Homo sapiens, UniProt Q96C86); assay: Stability of the compound assessed as human DcpS-mediated compound hydrolysis at 40 uM after 10 to 180 mins by HPLC analysis; type: ADME
T1 sequence (Q96C86 whole entry): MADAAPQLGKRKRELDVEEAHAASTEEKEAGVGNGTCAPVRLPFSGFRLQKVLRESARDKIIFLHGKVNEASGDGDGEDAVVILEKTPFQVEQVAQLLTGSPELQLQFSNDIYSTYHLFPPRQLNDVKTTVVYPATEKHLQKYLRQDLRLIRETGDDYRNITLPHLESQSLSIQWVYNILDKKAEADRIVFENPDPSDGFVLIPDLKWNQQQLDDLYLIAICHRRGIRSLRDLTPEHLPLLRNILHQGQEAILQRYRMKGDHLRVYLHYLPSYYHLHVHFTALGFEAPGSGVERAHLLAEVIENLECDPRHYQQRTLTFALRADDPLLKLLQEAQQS

[5] = target: T2, Eukaryotic translation initiation factor 4E (Oryctolagus cuniculus, UniProt P29338); assay: Inhibition of eIF4E-mediated translation in flexi rabbit reticulocyte lysate using luciferase mRNA preincubated for 60 mins before mRNA addition by luminescence based luciferase assay
[6] = target: T2, Eukaryotic translation initiation factor 4E; assay: Inhibition of eIF4E-mediated translation in flexi rabbit reticulocyte lysate using luciferase mRNA treated simultaneously with mRNA by luminescence based luciferase assay
[7] = target: T3, DcpS (m7GpppX diphosphatase) (Homo sapiens, UniProt Q96C86); assay: Stability of the compound assessed as human DcpS-mediated compound hydrolysis at 40 uM after 180 mins by HPLC analysis; type: ADME; conditions: human DcpS enzyme (m7GpppX diphosphatase), read-out: Drug degradation
T3 sequence (Q96C86 whole entry): T1 sequence (Q96C86 whole entry)

[8] = Chemical stability of the compound in glycine buffer at pH 2.2; type: physicochemical
[9] = Chemical stability of the compound in aqueous buffer at pH 4 to 8.5; type: physicochemical
[10] = Chemical stability of the compound in glycine buffer at pH 2.2 after 16 hrs; type: physicochemical; conditions: pH 2.2, 16 h
[11] = Chemical stability of the compound in […] buffer at pH 8.5; type: physicochemical
[12] = Chemical stability of the compound in phosphate buffer at pH 7 assessed as compound decomposition; type: physicochemical; conditions: read-out: Drug degradation

Sequence of Eukaryotic translation initiation factor 4E (Homo sapiens) (P06730 whole entry): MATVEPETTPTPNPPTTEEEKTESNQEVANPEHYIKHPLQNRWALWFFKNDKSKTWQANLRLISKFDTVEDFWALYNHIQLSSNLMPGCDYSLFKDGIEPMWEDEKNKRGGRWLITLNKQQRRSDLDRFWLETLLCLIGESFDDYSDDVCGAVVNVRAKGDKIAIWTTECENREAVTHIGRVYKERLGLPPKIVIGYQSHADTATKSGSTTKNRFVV
T2 sequence (P29338 whole entry): as the sequence (P06730 whole entry) above, with T16P, T17A, E174D counted along it
Sequence of Eukaryotic translation initiation factor 4E (Oryctolagus cuniculus) (P29338 whole entry): as the sequence (P06730 whole entry) above, with T16P, T17A, E174D counted along it

C[n+]1cn([C@@H]2O[C@H](COP(=O)(O)OP(=O)([O-])OP(=O)(O)OC[C@H]3O[C@@H](n4cnc5c(=O)[nH]c(N)nc54)[C@H](O)[C@@H]3O)[C@@H](O)[C@H]2O)c2nc(N)nc(O)c21
Ka [1]: 9.4 µM⁻¹

C[n+]1cn([C@@H]2O[C@H](CO[P@](=O)(S)OP(=O)([O-])CP(=O)([O-])O[P@@](=O)(S)OC[C@H]3O[C@@H](n4c[n+](C)c5c(O)nc(N)nc54)[C@H](O)[C@@H]3O)[C@@H](O)[C@H]2O)c2nc(N)nc(O)c21
Ratio [2]: 1.86

C[n+]1cn([C@@H]2O[C@H](CO[P@](=O)(S)OP(=O)([O-])OP(=O)(O)O)[C@@H](O)[C@H]2O)c2nc(N)nc(O)c21.N.N.N.N
Stability (Serum [3]): Stable | Stability (Serum [4]): Stable | Ka [1]: 371 µM⁻¹ | Stability (m7GpppX diphosphatase): Unstable

B[P@](=O)(OC[C@H]1O[C@@H](n2c[n+](C)c3c(O)nc(N)nc32)[C@H](O)[C@@H]1O)OP(=O)([O-])CP(=O)([O-])O[P@](B)(=O)OC[C@H]1O[C@@H](n2c[n+](C)c3c(O)nc(N)nc32)[C@H](O)[C@@H]1O
Ratio [2]: 1.18

B[P@@](=O)(OC[C@H]1O[C@@H](n2c[n+](C)c3c(O)nc(N)nc32)[C@H](O)[C@@H]1O)OP(=O)([O-])CP(=O)(O)O.N.N.N.N
IC50 [5]: 3.26 µM | IC50 [6]: 2.55 µM | Ka [1]: 36.1 µM⁻¹ | Stability (m7GpppX diphosphatase): Unstable

B[P@@](=O)(OC[C@H]1O[C@@H](n2c[n+](C)c3c(O)nc(N)nc32)[C@H](O)[C@@H]1O)OP(=O)([O-])OP(=O)([O-])O[P@](B)(=O)OC[C@H]1O[C@@H](n2c[n+](C)c3c(O)nc(N)nc32)[C@H](O)[C@@H]1O
metabolised at 3 h, 40 µM [7]: 81%

C[n+]1cn([C@@H]2O[C@H](COP(=O)(O)OP(=O)(O)OP(=O)(O)OC[C@H]3O[C@@H](n4c[n+](C)c5c([O-])nc(N)nc54)[C@H](O)[C@@H]3O)[C@@H](O)[C@H]2O)c2nc(N)nc([O-])c21
Ratio [2]: 2.66

[BH3-]P(=O)(OC[C@H]1O[C@@H](n2c[n+](C)c3c(O)nc(N)nc32)[C@H](O)[C@@H]1O)OP(=O)(O)CP(=O)(O)O (stereo not given in full)
Stability [8]: Unstable | Stability [9]: Stable

C[n+]1cn([C@@H]2O[C@H](COP(=O)(O)OP(=O)(O)NP(=O)(O)O)[C@@H](O)[C@H]2O)c2nc(N)nc([O-])c21
Stability [10]: Unstable | Stability [11]: Unstable

C[n+]1cn([C@@H]2O[C@H](CO[P@](=O)(S)OP(=O)([O-])CP(=O)(O)O)[C@@H](O)[C@H]2O)c2nc(N)nc(O)c21.N.N.N.N
IC50 [5]: 1.24 µM | Stability (Serum [3]): Stable | IC50 [6]: 1.49 µM | Stability (Serum [4]): Stable | Ka [1]: 85.9 µM⁻¹ | Stability (m7GpppX diphosphatase): Unstable

C[n+]1cn([C@@H]2O[C@H](COP(=O)(O)OP(=O)(O)OP(=O)(O)OP(=O)(O)OC[C@H]3O[C@@H](n4c[n+](C)c5c([O-])nc(N)nc54)[C@H](O)[C@@H]3O)[C@@H](O)[C@H]2O)c2nc(N)nc([O-])c21
Ratio [2]: 3.14

B[P@](=O)(OC[C@H]1O[C@@H](n2c[n+](C)c3c(O)nc(N)nc32)[C@H](O)[C@@H]1O)OP(=O)([O-])CP(=O)([O-])O[P@@](B)(=O)OC[C@H]1O[C@@H](n2c[n+](C)c3c(O)nc(N)nc32)[C@H](O)[C@@H]1O
Ratio [2]: 0.85

C[n+]1cn([C@@H]2O[C@H](COP(=O)([O-])OP(=O)(O)OP(=O)(O)O)[C@@H](O)[C@H]2O)c2nc(N)[nH]c(=O)c21
Stability (Serum [3]): Unstable | Stability (Serum [4]): Unstable | Stability (m7GpppX diphosphatase): Stable

C[n+]1cn([C@@H]2O[C@H](CO[P@](=O)(S)OP(=O)([O-])CP(=O)([O-])O[P@](=O)(S)OC[C@H]3O[C@@H](n4c[n+](C)c5c(O)nc(N)nc54)[C@H](O)[C@@H]3O)[C@@H](O)[C@H]2O)c2nc(N)nc(O)c21
Ratio [2]: 1.56

B[P@](=O)(OC[C@H]1O[C@@H](n2c[n+](C)c3c(O)nc(N)nc32)[C@H](O)[C@@H]1O)OP(=O)([O-])CP(=O)(O)O.N.N.N.N
IC50 [5]: 3.22 µM | IC50 [6]: 4.47 µM | Ka [1]: 18.5 µM⁻¹ | Stability (m7GpppX diphosphatase): Unstable

B[P@@](=O)(OC[C@H]1O[C@@H](n2c[n+](C)c3c(O)nc(N)nc32)[C@H](O)[C@@H]1O)OP(=O)([O-])CP(=O)([O-])O[P@](B)(=O)OC[C@H]1O[C@@H](n2c[n+](C)c3c(O)nc(N)nc32)[C@H](O)[C@@H]1O
Ratio [2]: 0.99

[BH3-]P(=O)(OC[C@H]1O[C@@H](n2c[n+](C)c3c(O)nc(N)nc32)[C@H](O)[C@@H]1O)OP(=O)(O)NP(=O)(O)O (stereo not given in full)
degraded [12]: > 50% | Stability [10]: Unstable | Stability [11]: Unstable

C[n+]1cn([C@@H]2O[C@H](COP(=O)(O)OP(=O)(O)CP(=O)(O)O)[C@@H](O)[C@H]2O)c2nc(N)nc([O-])c21
Ka [1]: 19.5 µM⁻¹

[BH3-]P(=O)(OC[C@H]1O[C@@H](n2c[n+](C)c3c(O)nc(N)nc32)[C@H](O)[C@@H]1O)OP(=O)(O)OP(=O)(O)O (stereo not given in full)
Stability [8]: Unstable | Stability [9]: Stable

C[n+]1cn([C@@H]2O[C@H](CO[P@@](=O)(S)OP(=O)([O-])CP(=O)(O)O)[C@@H](O)[C@H]2O)c2nc(N)nc(O)c21.N.N.N.N
IC50 [5]: 2.61 µM | Stability (Serum [3]): Unstable | IC50 [6]: 3.68 µM | Stability (Serum [4]): Unstable | Ka [1]: 41.8 µM⁻¹ | Stability (m7GpppX diphosphatase): Unstable

B[P@](=O)(OC[C@H]1O[C@@H](n2c[n+](C)c3c(O)nc(N)nc32)[C@H](O)[C@@H]1O)OP(=O)([O-])OP(=O)(O)O.N.N.N.N
IC50 [5]: 3.26 µM | IC50 [6]: 4.12 µM | Ka [1]: 136 µM⁻¹ | Stability (m7GpppX diphosphatase): Unstable

C[n+]1cn([C@@H]2O[C@H](CO[P@@](=O)(S)OP(=O)([O-])OP(=O)(O)O)[C@@H](O)[C@H]2O)c2nc(N)nc(O)c21.N.N.N.N
IC50 [5]: 1.3 µM | Stability (Serum [3]): Stable | IC50 [6]: 1.44 µM | Stability (Serum [4]): Stable | Ka [1]: 190 µM⁻¹ | Stability (m7GpppX diphosphatase): Unstable

C[n+]1cn([C@@H]2O[C@H](COP(=O)(O)OP(=O)([O-])OP(=O)(O)OC[C@H]3O[C@@H](n4cnc5c(=O)[nH]c(N)nc54)[C@H](O)[C@@H]3O)[C@@H](O)[C@H]2O)c2nc(N)[nH]c(=O)c21
IC50 [5]: 25 µM | Stability (m7GpppX diphosphatase): Stable

CO[C@H]1[C@@H](O)[C@H](n2c[n+](C)c3c(O)nc(N)nc32)O[C@@H]1COP(=O)(O)OP(=O)([O-])OP(=O)(O)OC[C@H]1O[C@@H](n2cnc3c(=O)[nH]c(N)nc32)[C@H](O)[C@@H]1O
Ratio [2]: 1.5

C[n+]1cn([C@@H]2O[C@H](CO[P@@](=O)(S)OP(=O)([O-])CP(=O)([O-])O[P@](=O)(S)OC[C@H]3O[C@@H](n4c[n+](C)c5c(O)nc(N)nc54)[C@H](O)[C@@H]3O)[C@@H](O)[C@H]2O)c2nc(N)nc(O)c21
Ratio [2]: 1.12

B[P@@](=O)(OC[C@H]1O[C@@H](n2c[n+](C)c3c(O)nc(N)nc32)[C@H](O)[C@@H]1O)OP(=O)([O-])OP(=O)(O)O.N.N.N.N
IC50 [5]: 1.28 µM | IC50 [6]: 1.19 µM | Ka [1]: 148 µM⁻¹ | metabolised at 3 h, 40 µM [7]: 19% | Stability (m7GpppX diphosphatase): Unstable
